{"source": "patent US11034718B2", "about": "“C-3 novel triterpenone with C-17 reverse amide derivatives as HIV inhibitors” (HETERO LABS LIMITED, priority 2015, dated 2021)", "format_in_all_cases": "cell-based", "key": {"[1]": {"test_system": "HIV-1 strain 92HT599", "assay": "Antiviral activity against HIV-1 strain 92HT599 in MT2 cells (p24 estimation)", "settings": "HIV-1 92HT599, ~96 hours", "summary_of_the_method": "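Percent inhibition versus vehicle controls came from p24 quantified in supernatant aliquots. These were taken after ~96 h incubation of compound (DMSO ≤1%) with MT2 cells infected at 10 TCID50/30,000 cells.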"}, "[2]": {"test_system": "HIV-1 pNL4-3 WT", "assay": "Antiviral activity against pNL4-3/WT strain in MT4 cells (p24 estimation)", "settings": "Human immunodeficiency virus 1, MT4, 96 h, read-out: pNL4-3 WT IC50", "protocol": "(§1) Example 78: Evaluation of Compounds Antiviral Activity Against pNL4-3/WT & V7A Strains in MT4 Cells\n(§2) MT4 cells were Transfected with HIV-1 Plasmid (pNL4-3-WT & V7A) (Cells were incubating with required number of TCID50 of HIV-1 for 1.5 h at 37° C.). After infection, the infected cells were plated at the concentration of 3×10^4 cells per well in 96 well plate. Test compound was added to the test plate in defined format with the final concentration of DMSO is not more than 1%. Incubation was carried out in CO2 incubator for 4 days for viral infection. At the end of incubation period an aliquot from each well was taken for p24 estimation. p24 estimation was carried out using Advance biosciences kit as per the procedure detailed by supplier."}, "[3]": {"test_system": "HIV-1 pNL4-3 V7A", "assay": "Antiviral activity against pNL4-3/V7A strain in MT4 cells (p24 estimation)", "settings": "Human immunodeficiency virus 1, MT4, 96 h, read-out: pNL4-3 V7A IC50", "protocol": "as §1, §2"}, "[4]": {"settings": "Human immunodeficiency virus 1, 0% serum binding assay, read-out: IC50 0% serum"}, "[5]": {"settings": "Human immunodeficiency virus 1, 40% serum binding assay, read-out: IC50 40% serum"}}, "note": "Like-named read-outs stand apart in the source and are kept apart here.", "data": [{"smiles": "CC(C)C1=C2[C@H]3CC[C@@H]4[C@@]5(C)CC[C@H](OC(=O)[C@H]6C[C@@H](C(=O)O)C6(C)C)C(C)(C)[C@@H]5CC[C@@]4(C)[C@]3(C)CC[C@@]2(NC(=O)C2(NC(=O)c3ccc(F)cc3)CC2)CC1=O", "note": "[Example 39, (1R,3S)-3-((((3aR,5aR,5bR,7aR,9S,11aR,11bR,13aS)-3a-(1-(4-fluorobenzamido)cyclopropane-1-carboxamido)-1-isopropyl-5a,5b,8,8,11a-pentamethyl-2-oxo-3,3a,4,5,5a,5b,6,7,7a,8,9,10,11,11a,11b,12,13,13a-octadecahydro-2H-cyclopenta[a]chrysen-9-yl)oxy)carbonyl)-2,2-dimethylcyclobutane-1-carboxylic acid]", "values": [{"measurement": "IC50", "setting": "[1]; [4]", "result": "< 3", "unit": "nM"}, {"measurement": "IC50", "setting": "[1]; [5]", "result": "< 50", "unit": "nM"}, {"measurement": "IC50", "setting": "[2]", "result": "5.01 to 10", "unit": "nM"}, {"measurement": "IC50", "setting": "[3]", "result": "10 to 50", "unit": "nM"}]}, {"smiles": "Cc1ccc(C(=O)NC2(C(=O)N[C@@]34CC[C@]5(C)[C@H](CC[C@@H]6[C@@]7(C)CC[C@H](OC(=O)[C@H]8C[C@@H](C(=O)O)C8(C)C)C(C)(C)[C@@H]7CC[C@]65C)C3=C(C(C)C)C(=O)C4)CC2)cc1", "note": "[Example 40, (1R,3S)-3-((((3aR,5aR,5bR,7aR,9S,11aR,11bR,13aS)-1-isopropyl-5a,5b,8,8,11a-pentamethyl-3a-(1-(4-methylbenzamido)cyclopropane-1-carboxamido)-2-oxo-3,3a,4,5,5a,5b,6,7,7a,8,9,10,11,11a,11b,12,13,13a-octadecahydro-2H-cyclopenta[a]chrysen-9-yl)oxy)carbonyl)-2,2-dimethylcyclobutane-1-carboxylic acid]", "values": [{"measurement": "IC50", "setting": "[1]; [4]", "result": "< 3", "unit": "nM"}, {"measurement": "IC50", "setting": "[1]; [5]", "result": "< 50", "unit": "nM"}, {"measurement": "IC50", "setting": "[2]", "result": "< 5", "unit": "nM"}, {"measurement": "IC50", "setting": "[3]", "result": "< 10", "unit": "nM"}]}, {"smiles": "CC(C)C1=C2[C@H]3CC[C@@H]4[C@@]5(C)CC[C@H](OC(=O)[C@@H]6C[C@H](C(=O)O)C6(C)C)C(C)(C)[C@@H]5CC[C@@]4(C)[C@]3(C)CC[C@@]2(NC(=O)C2(NC(=O)c3ccc(Cl)cc3)CC2)CC1=O", "note": "[Example 41, (1S,3R)-3-((((3aR,5aR,5bR,7aR,9S,11aR,11bR,13aS)-3a-(1-(4-chlorobenzamido)cyclopropane-1-carboxamido)-1-isopropyl-5a,5b,8,8,11a-pentamethyl-2-oxo-3,3a,4,5,5a,5b,6,7,7a,8,9,10,11,11a,11b,12,13,13a-octadecahydro-2H-cyclopenta[a]chrysen-9-yl)oxy)carbonyl)-2,2-dimethylcyclobutane-1-carboxylic acid]", "values": [{"measurement": "IC50", "setting": "[1]; [4]", "result": "< 3", "unit": "nM"}, {"measurement": "IC50", "setting": "[1]; [5]", "result": "< 50", "unit": "nM"}, {"measurement": "IC50", "setting": "[2]", "result": "> 10", "unit": "nM"}, {"measurement": "IC50", "setting": "[3]", "result": "10 to 50", "unit": "nM"}]}, {"smiles": "CC(C)C1=C2[C@H]3CC[C@@H]4[C@@]5(C)CC[C@H](OC(=O)[C@H]6C[C@@H](C(=O)O)C6(C)C)C(C)(C)[C@@H]5CC[C@@]4(C)[C@]3(C)CC[C@@]2(NC(=O)C2(NC(=O)c3ccc(Cl)cc3)CCC2)CC1=O", "note": "[Example 42, (1R,3S)-3-((((3aR,5aR,5bR,7aR,9S,11aR,11bR,13aS)-3a-(1-(4-chlorobenzamido)cyclobutane-1-carboxamido)-1-isopropyl-5a,5b,8,8,11a-pentamethyl-2-oxo-3,3a,4,5,5a,5b,6,7,7a,8,9,10,11,11a,11b,12,13,13a-octadecahydro-2H-cyclopenta[a]chrysen-9-yl)oxy)carbonyl)-2,2-dimethylcyclobutane-1-carboxylic acid]", "values": [{"measurement": "IC50", "setting": "[1]; [4]", "result": "< 3", "unit": "nM"}, {"measurement": "IC50", "setting": "[1]; [5]", "result": "< 50", "unit": "nM"}, {"measurement": "IC50", "setting": "[2]", "result": "5.01 to 10", "unit": "nM"}, {"measurement": "IC50", "setting": "[3]", "result": "< 10", "unit": "nM"}]}, {"smiles": "CC(C)C1=C2[C@H]3CC[C@@H]4[C@@]5(C)CC[C@H](OC(=O)[C@H]6C[C@@H](C(=O)O)C6(C)C)C(C)(C)[C@@H]5CC[C@@]4(C)[C@]3(C)CC[C@@]2(NC(=O)C2(NC(=O)c3ncccn3)CCC2)CC1=O", "note": "[Example 44, (1R,3S)-3-((((3aR,5aR,5bR,7aR,9S,11aR,11bR,13aS)-1-isopropyl-5a,5b,8,8,11a-pentamethyl-2-oxo-3a-(1-(pyrimidine-2-carboxamido)cyclobutane-1-carboxamido)-3,3a,4,5,5a,5b,6,7,7a,8,9,10,11,11a,11b,12,13,13a-octadecahydro-2H-cyclopenta[a]chrysen-9-yl)oxy)carbonyl)-2,2-dimethylcyclobutane-1-carboxylic acid]", "values": [{"measurement": "IC50", "setting": "[1]; [4]", "result": "< 3", "unit": "nM"}, {"measurement": "IC50", "setting": "[1]; [5]", "result": "50 to 200", "unit": "nM"}, {"measurement": "IC50", "setting": "[2]", "result": "> 10", "unit": "nM"}, {"measurement": "IC50", "setting": "[3]", "result": "> 50", "unit": "nM"}]}, {"smiles": "CC(C)C1=C2[C@H]3CC[C@@H]4[C@@]5(C)CC[C@H](OC(=O)[C@H]6C[C@@H](C(=O)O)C6(C)C)C(C)(C)[C@@H]5CC[C@@]4(C)[C@]3(C)CC[C@@]2(NC(=O)C2(NC(=O)c3cccnc3N3CCOCC3)CCC2)CC1=O", "note": "[Example 45, (1R,3S)-3-((((3aR,5aR,5bR,7aR,9S,11aR,11bR,13aS)-1-isopropyl-5a,5b,8,8,11a-pentamethyl-3a-(1-(2-morpholinonicotinamido)cyclobutane-1-carboxamido)-2-oxo-3,3a,4,5,5a,5b,6,7,7a,8,9,10,11,11a,11b,12,13,13a-octadecahydro-2H-cyclopenta[a]chrysen-9-yl)oxy)carbonyl)-2,2-dimethylcyclobutane-1-carboxylic acid]", "values": [{"measurement": "IC50", "setting": "[1]; [4]", "result": "3.01 to 10", "unit": "nM"}, {"measurement": "IC50", "setting": "[1]; [5]", "result": "< 50", "unit": "nM"}, {"measurement": "IC50", "setting": "[2]", "result": "< 5", "unit": "nM"}, {"measurement": "IC50", "setting": "[3]", "result": "10 to 50", "unit": "nM"}]}, {"smiles": "Cc1ccc(C(=O)NC2(C(=O)N[C@@]34CC[C@]5(C)[C@H](CC[C@@H]6[C@@]7(C)CC[C@H](OC(=O)[C@H]8C[C@@H](C(=O)O)C8(C)C)C(C)(C)[C@@H]7CC[C@]65C)C3=C(C(C)C)C(=O)C4)CCCC2)cn1", "note": "[Example 47, (1R,3S)-3-((((3aR,5aR,5bR,7aR,9S,11aR,11bR,13aS)-1-isopropyl-5a,5b,8,8,11a-pentamethyl-3a-(1-(6-methylnicotinamido)cyclopentane-1-carboxamido)-2-oxo-3,3a,4,5,5a,5b,6,7,7a,8,9,10,11,11a,11b,12,13,13a-octadecahydro-2H-cyclopenta[a]chrysen-9-yl)oxy)carbonyl)-2,2-dimethylcyclobutane-1-carboxylic acid]", "values": [{"measurement": "IC50", "setting": "[1]; [4]", "result": "< 3", "unit": "nM"}, {"measurement": "IC50", "setting": "[1]; [5]", "result": "< 50", "unit": "nM"}, {"measurement": "IC50", "setting": "[2]", "result": "< 5", "unit": "nM"}, {"measurement": "IC50", "setting": "[3]", "result": "< 10", "unit": "nM"}]}, {"smiles": "CC(C)C1=C2[C@H]3CC[C@@H]4[C@@]5(C)CC[C@H](OC(=O)[C@H]6C[C@@H](C(=O)O)C6(C)C)C(C)(C)[C@@H]5CC[C@@]4(C)[C@]3(C)CC[C@@]2(NC(=O)C(C)(C)NC(=O)c2ccc(S(C)(=O)=O)cc2)CC1=O", "note": "[Example 51, (1R,3S)-3-((((3aR,5aR,5bR,7aR,9S,11aR,11bR,13aS)-1-isopropyl-5a,5b,8,8,11a-pentamethyl-3a-(2-methyl-2-(4-(methylsulfonyl)benzamido)propanamido)-2-oxo-3,3a,4,5,5a,5b,6,7,7a,8,9,10,11,11a,11b,12,13,13a-octadecahydro-2H-cyclopenta[a]chrysen-9-yl)oxy)carbonyl)-2,2-dimethylcyclobutane-1-carboxylic acid]", "values": [{"measurement": "IC50", "setting": "[1]; [4]", "result": "< 3", "unit": "nM"}, {"measurement": "IC50", "setting": "[1]; [5]", "result": "< 50", "unit": "nM"}, {"measurement": "IC50", "setting": "[2]", "result": "5.01 to 10", "unit": "nM"}, {"measurement": "IC50", "setting": "[3]", "result": "> 50", "unit": "nM"}]}, {"smiles": "CC(C)C1=C2[C@H]3CC[C@@H]4[C@@]5(C)CC[C@H](OC(=O)[C@H]6C[C@@H](C(=O)O)C6(C)C)C(C)(C)[C@@H]5CC[C@@]4(C)[C@]3(C)CC[C@@]2(NC(=O)C(C)(C)NC(=O)Cc2ccc(Cl)cc2)CC1=O", "note": "[Example 53, (1R,3S)-3-((((3aR,5aR,5bR,7aR,9S,11aR,11bR,13aS)-3a-(2-(2-(4-chlorophenyl)acetamido)-2-methylpropanamido)-1-isopropyl-5a,5b,8,8,11a-pentamethyl-2-oxo-3,3a,4,5,5a,5b,6,7,7a,8,9,10,11,11a,11b,12,13,13a-octadecahydro-2H-cyclopenta[a]chrysen-9-yl)oxy)carbonyl)-2,2-dimethylcyclobutane-1-carboxylic acid]", "values": [{"measurement": "IC50", "setting": "[1]; [4]", "result": "< 3", "unit": "nM"}, {"measurement": "IC50", "setting": "[1]; [5]", "result": "< 50", "unit": "nM"}, {"measurement": "IC50", "setting": "[2]", "result": "< 5", "unit": "nM"}, {"measurement": "IC50", "setting": "[3]", "result": "< 10", "unit": "nM"}]}]}
